Columns and labels:
ASD patients = settings: cited from earlier work
[1] = Vitamin B1 level in whole blood, serum pyridoxamine and pyridoxal levels and Wernicke's encephalopathy in two test subjects on pyridoxamine medication; assay type: in vivo, human
[2] = Capture of serotonin by glyoxal, free serotonin by HPLC; assay type: biochemical; settings: 2.5 mM serotonin + 25 mM glyoxal + 25 mM test compound, pH 7.4, room temperature, 2 hours; glyoxal alone about 40%
Procedure: (§1) The reaction solutions are incubated at room temperature, and the amount of free serotonin or dopamine, which were not captured by glyoxal, in the reaction solutions was measured by HPLC.
(§2) The negative control contained only 5-HT or DP with a buffer (GO and the test compounds were not added) (test samples 1 and 5), and the positive control contained 5-HT or DP and only GO (none of the test compounds was added) (test samples 2 and 6). […] After incubation, the reaction solutions were diluted 10-fold (pH 7.4) with a 0.25 M phosphate buffer, and analyzed by HPLC. The HPLC analysis was performed with instruments produced by Shimadzu Corporation (system controller: SCL-10A vp, auto injector: SIL-10A, degasser: DGU-12A, liquid chromatograph: LC-10AD vp, UV-Vis detector: SPD-10A vp, and column oven: CTO-10AC vp) under the conditions shown in Table 6. The data analysis was performed with Chromatopac C-R7A Plus.

[3] = Capture of dopamine by glyoxal, free dopamine by HPLC; assay type: biochemical; settings: 2.5 mM dopamine + 25 mM glyoxal + 25 mM test compound, pH 7.4, room temperature, 30 minutes; glyoxal alone about 30%
Procedure: as §1, §2

SMILES: Cc1ncc(CO)c(CO)c1O [pyridoxine]
- side effects (irritability, hyperactivity, sound sensitivity, enuresis) (ASD patients; children with ASD, NPL 8, NPL 9): may cause side effects to develop
- verbal intelligence (ASD patients; children with pervasive developmental disorder who have sensitivity to sound, NPL 7): improvement in verbal intelligence
- intelligence quotient (IQ) scores (ASD patients; children with pervasive developmental disorder, sensitive to sound, expressive language disorder, dyspraxia, high amount, NPL 2): increases in intelligence quotient (IQ) scores

SMILES: CC(=C(CCO)SSCC1CCCO1)N(C=O)Cc1cnc(C)nc1N (stereo in doubt) [Fursultiamine, fursultiamine, reference compound]
- symptom of Wernicke's encephalopathy ([1]; subject ID No. 3, 14 weeks after start (8 weeks after start of thiamine compound 75 mg/day oral)): disappeared
- vitamin B1 level in whole blood ([1]; subject ID No. 3, fursultiamine 75 mg/day oral for 6 weeks with continued pyridoxamine, 12 weeks after start, 28 ng/mL before thiamine): 135 ng/mL
- symptoms of Wernicke's encephalopathy ([1]; subject ID No. 6, 11 weeks after start, on thiamine compound): disappeared
- vitamin B1 level in whole blood ([1]; subject ID No. 6, fursultiamine 300 mg/day intravenous, then 100 to 50 mg/day oral, with pyridoxamine, 11 weeks after start, 25 ng/mL before thiamine): 150 ng/mL

SMILES: Cc1ncc(CO)c(C=O)c1O [pyridoxal]
- amount of free serotonin relative to the negative control taken as 100% [2]: rather decreased
- repetitive patterns of behavior of ASD patients (ASD patients; 30 mg/kg/day, other research denies this efficacy (NPL 6)): effective
- amount of free dopamine relative to the negative control taken as 100% [3]: no free dopamine became detectable

From patent publication US11253519B2, “Composition used to improve symptoms of autism spectrum disorder, and method using same for improving symptoms of autism spectrum disorder” (RENASCIENCE CO., LTD., priority 2016, dated 2022)
